Reference: the NIST ThermoML archive (doi:10.1016/j.jct.2016.05.001)
Numbers after ± are expanded uncertainties.

Details: 101.33 kPa, Crystal; for molar entropy: Small (less than 1 g) adiabatic calorimetry; for mass density: X-ray diffraction

Nc1nc2ncc(CNc3ccc(C(=O)N[C@@H](CCC(=O)O)C(=O)O)cc3)nc2c(=O)[nH]1.O.O [folic acid dihydrate]
molar entropy (4 K): 0.0255 ± 0.024 J/K/mol
molar entropy (5 K): 0.0623 ± 0.025 J/K/mol
molar entropy (6 K): 0.1291 ± 0.026 J/K/mol
molar entropy (7 K): 0.2371 ± 0.028 J/K/mol
molar entropy (8 K): 0.3983 ± 0.031 J/K/mol
molar entropy (9 K): 0.6346 ± 0.038 J/K/mol
molar entropy (10 K): 0.962 ± 0.048 J/K/mol
molar entropy (15 K): 3.956 ± 0.14 J/K/mol
molar entropy (20 K): 8.733 ± 0.29 J/K/mol
molar entropy (25 K): 15.36 ± 0.5 J/K/mol
molar entropy (30 K): 23.55 ± 0.74 J/K/mol
molar entropy (35 K): 32.93 ± 1 J/K/mol
molar entropy (40 K): 43.15 ± 1.3 J/K/mol
molar entropy (45 K): 53.9 ± 0.9 J/K/mol
molar entropy (50 K): 65 ± 1.1 J/K/mol
molar entropy (60 K): 87.81 ± 1.4 J/K/mol
molar entropy (70 K): 111.2 ± 1.8 J/K/mol
molar entropy (80 K): 134.6 ± 2.2 J/K/mol
molar entropy (90 K): 157.6 ± 1.3 J/K/mol
molar entropy (100 K): 180.2 ± 1.5 J/K/mol
molar entropy (110 K): 202.6 ± 1.6 J/K/mol
molar entropy (120 K): 224.6 ± 1.8 J/K/mol
molar entropy (130 K): 246.2 ± 1.9 J/K/mol
molar entropy (140 K): 267.7 ± 2.1 J/K/mol
molar entropy (150 K): 288.9 ± 2.3 J/K/mol
mass density (150 K): 1556 ± 6 kg/m3
molar entropy (160 K): 309.9 ± 2.4 J/K/mol
molar entropy (170 K): 330.6 ± 2.6 J/K/mol
mass density (175 K): 1554 ± 6 kg/m3
molar entropy (180 K): 351.2 ± 2.7 J/K/mol
molar entropy (190 K): 371.6 ± 2.9 J/K/mol
molar entropy (200 K): 391.9 ± 3 J/K/mol
mass density (200 K): 1552 ± 6 kg/m3
molar entropy (210 K): 412 ± 3.2 J/K/mol
molar entropy (220 K): 432 ± 3.3 J/K/mol
mass density (225 K): 1550 ± 6 kg/m3
molar entropy (230 K): 451.9 ± 3.4 J/K/mol
molar entropy (240 K): 471.7 ± 3.6 J/K/mol
molar entropy (250 K): 491.4 ± 3.7 J/K/mol
mass density (250 K): 1549 ± 6 kg/m3
molar entropy (260 K): 511 ± 3.9 J/K/mol
molar entropy (270 K): 530.5 ± 4 J/K/mol
molar entropy (273.15 K): 536.6 ± 4.1 J/K/mol
mass density (275 K): 1546 ± 6 kg/m3
molar entropy (280 K): 549.9 ± 4.2 J/K/mol
molar entropy (290 K): 569.3 ± 4.3 J/K/mol
molar entropy (298.15 K): 585 ± 4.4 J/K/mol
molar entropy (300 K): 588.6 ± 4.5 J/K/mol
mass density (300 K): 1543 ± 6 kg/m3
molar entropy (310 K): 607.8 ± 4.6 J/K/mol
molar entropy (320 K): 627 ± 4.7 J/K/mol
mass density (325 K): 1542 ± 6 kg/m3
molar entropy (330 K): 646.1 ± 4.9 J/K/mol
molar entropy (333 K): 651.9 ± 4.9 J/K/mol
mass density (350 K): 1540 ± 6 kg/m3
mass density (375 K): 1537 ± 6 kg/m3
